Among the data in patent publication US10457707B2, “Substituted urea depsipeptide analogs as activators of the CLPP endopeptidase” (priority 2015, dated 2019) are IC50 and EC50 values, retold here.

Read-outs that look alike come from different tables or passages of the source. *1 amine or outer side, *2 acyl side, *3 side chain or, on linkers, in order; H or OH if unused. Where a SMILES comes first, the peptide text is derived from it. Bridges are numbered along the chain shown (N, C = ends). [ ]: non-standard residue; d: D form. The star is where a group is joined. ξ: configuration not given here. Phe(3,5-F2) = N[CH](Cc1cc(F)cc(F)c1)C(=O)O; NH(4-OCF3-phenyl) = FC(F)(F)Oc1ccc(N*)cc1; X14 = O=C(C1CC(OP(=O)(O)O)CN1[*:1])[*:2]; Pro(4S-Me) = C[C@@H]1CN[C@H](C(=O)O)C1; Pro(4R-Me) = C[C@H]1CN[C@H](C(=O)O)C1; NH(3,4-Me2-phenyl) = Cc1ccc(N*)cc1C; aThr = C[C@H](O)[C@H](N)C(=O)O; ξPro(4ξ-Me) = CC1CNC(C(=O)O)C1; X13 = c1nc2cc(N*)ccc2[nH]1; Pip = O=C(O)[CH]1CCCCN1; CO = O=C([*:1])[*:2]

Data set [1] relates to Vero (kidney epithelial cells; ATCC CCL-81). Put plainly: Cytotoxicity assay (CellTiter-Glo cell viability, 72 hours). In kind it is cell-based. Conditions: Vero cells, 72 hours, growth inhibition; read-out: Cytotoxicity IC50. Here is the method:
(§1) Cytotoxicity was determined by determining the effect of compounds on cell viability. Vero (kidney epithelial cells; ATCC CCL-81) monolayers were trypsinized and 5000 cells/well were seeded (10-15% confluency) into white-wall, flat bottom 96 well microwell plates (Corning) using enriched Dulbecco's Modified Eagle's Medium (Hyclone:DMEM/High Glucose) containing 10% Fetal Bovine Serum (ATCC-30-2020). Plates were incubated overnight at 37° C. in the presence of 5% CO2. Drug-free media was then replaced with media containing serial dilutions of test compound or DMSO carrier. After an additional 72 hours of incubation, viability was indirectly measured using the CellTiter-Glo® Luminescent Cell Viability (Promega) assay. Assay plates were read at peak emission wavelength of 560 nm using a EnVision® Multilabel Plate Reader (Perkin Elmer) or PHERAstar FS Multilabel reader (BMG, Cary, N.C.). […] USA, www.graphpad.com]. For each experiment, compounds were tested in duplicate. IC50 values presented are the range of two biologically independent experiments.

Data set [2] deals with T1, Sa-ClpP (Staphylococcus aureus, UniProt Q2G036).
T1 construct: made in house; host or cells: E. coli BL21(DE3)
T1 sequence (Q2G036 1-195): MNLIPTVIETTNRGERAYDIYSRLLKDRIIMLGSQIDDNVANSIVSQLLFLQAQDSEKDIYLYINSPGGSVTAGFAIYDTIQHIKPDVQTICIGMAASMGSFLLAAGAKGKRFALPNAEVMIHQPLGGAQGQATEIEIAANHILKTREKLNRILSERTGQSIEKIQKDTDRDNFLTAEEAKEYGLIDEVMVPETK
Put plainly: ADEP displacement fluorescence polarization assay (FP probe ADEP 2591). The class given is binding. Here is the method: A fluorescence polarization (FP) assay was used to determine the activity of the disclosed compounds in displacing an ADEP analogue from ClpP. Briefly, the assay was performed in black 384 well, flat bottom, low volume plates (Greiner Bio-One, Monroe, N.C., catalog #784076). 20 μL of a pre-equilibrated (1 hr, room temperature) master mix (15 μM Sa-ClpP, 2% DMSO (v/v) and 50 nM FP probe in Tris*HCl, pH 8.0)) was pipetted into each well using a Well-Mate (Thermo Scientific, Waltham, Mass.). Sa-ClpP was prepared as described above for the ClpP activation assay. The FP probe was ADEP 2591 (structure shown above). The ADEP 2591 comprises a TAMRA fluorophore linked to a core based on modified ADEP 2378 via a short alkyl linker. Using pin transfer, approximately 0.4 μL (2% v/v DMSO) of each compound or control was added per well. After addition of compounds and controls, plates were allowed to incubate for an additional 120 minutes at room temperature. All assays were performed in triplicate. Polarization was monitored using an EnVision Multilabel reader (Perkin-Elmer, Waltham, Mass.) by exciting the FP probe at 530±25 nm, and monitoring fluorescence intensity of both parallel and perpendicular polarized light at 579±25 nm. Readout was in millipolarization units (mP).
Data collected was normalized to values obtained from positive (200 μM ADEP 2378) or negative (DMSO) controls. Curves were fit with non-linear regression using the equation “log [inhibitor] vs. Response-variable slope (four parameters)-symmetrical” in the program Prism 6 (GraphPad Software, La Jolla, Calif. USA, www.graphpad.com). The structures for ADEP 2378 and ADEP 2591 are shown above. ADEP 2378 is (E)-N—((S)-1-(((2R,6S,8aS,14aS,20S,23aS)-2,6-dimethyl-5,8,14,19,23-pentaoxooctadecahydro-1H,5H,14H,19H-pyrido[2,1-i]dipyrrolo[2,1-c:2′,1′-1][1]oxa[4,7,10,13]tetraazacyclohexadecin-20-yl)amino)-1-oxo-3-phenylpropan-2-yl)pent-2-enamide. ADEP 2591 is 5-(3-(3-((6S,9S,11aS,17S,20aS)-6,10-dimethyl-5,8,11,16,20-pentaoxo-17-((S)-2-((E)-pent-2-enamido)-3-phenylpropanamido)hexadecahydro-1H,5H,16H-dipyrrolo[2,1-c:2′,1′-1][1]oxa[4,7,10,13]tetraazacyclohexadecin-9-yl)propyl)thioureido)-2-(6-(dimethylamino)-3-(dimethyliminio)-3H-xanthen-9-yl)benzoate.
(Polarisation of emitted light reports the rotation of a fluorescent probe.)

Data set [3] has as its target T1, Sa-ClpP. The data set can be described thus: Sa-ClpP casein-BODIPY ClpP activation assay, method variant not marked in Table 5. The class given is biochemical, S. aureus. The protocol: The compounds were assayed in a casein digestion assay in order to determine their effect on ClpP activation. Briefly, the assay was carried out using S. aureus ClpP (“Sa-ClpP”) overexpressed in E. coli BL21(DE3) and purified in a two-step process. Purity of the protein was assessed through SDS PAGE analysis. EC50 evaluations were conducted in triplicate in a 20 μl assay format using a method adapted from Maurizi et al. (Methods Enzymol. (1994) 244:314-331). Each well contained 10 μM saClpP, 25 μg/ml BODIPY FL casein (Invitrogen Corporation, San Diego, Calif.), and test compound in concentrations ranging between 0-1000 μM in assay buffer (50 mM Tris pH 8, 200 mM KCl, and 1 mM TCEP). The reaction took place at 37° C. Fluorescence (excitation 485 nm; emission 528 nm) was measured in five minute intervals over a 45 min period using a BioTek HT fluorescence microplate reader (BioTek Instruments, Inc., Winooski, Vt.). Velocity of each reaction was calculated and data was fit to a dose response curve using GraphPad Prism® software (GraphPad Software, Inc., La Jolla, Calif.). EC50 is the effective concentration of compound which causes 50% activation of S. aureus ClpP in the foregoing BODIPY FL casein assay.
Alternatively, the assay was carried out using EnzCheck Protease Assay (Molecular Probes, Catalog # E6638). The assay was performed in black 384 well, flat bottom, low volume plates (Greiner Bio-One, Monroe, N.C., catalog #784076). 10 μL of Tris*HCl buffer, pH 8.0 with 0.01% Triton X-100 was pipetted into each well using a Well-Mate (Thermo Scientific, Waltham, Mass.). 0.4 μL test compounds or controls (2% DMSO v/v) were added to each well using a Biomek FX liquid handling robot (Beckman Coulter, Indianapolis Ind.). After addition of test compounds and controls, 10 μL of master mix containing 2 μM Sa-ClpP and 2 μM substrate (Bodipy-FL labeled casein) in Tris*HCl buffer, pH 8.0 with 0.01% (v/v) Triton X-100, was pipetted into each well. All assays were performed in triplicate, under linear velocity conditions. Increase in fluorescent signal following activation of Sa-ClpP by test compounds and controls was measured over time period of 30 mins using filters with excitation at 485±15 nm and emission at 520±25 nm on a PHERAstar FS Multilabel reader (BMG, Cary, N.C.). […] Data analysis was done by measuring rate of casein degradation over time (slopes). Computed degradation rates (slopes) were normalized to positive (ADEP4) or negative (DMSO) controls. Using nonlinear regression curve fitting EC50 values and % activation were determined using the equation “log [agonist] vs. Response-variable slope (four parameters)-symmetrical” in the program Prism 6 (GraphPad Software, La Jolla, Calif. USA, www.graphpad.com).
Substituted urea depsipetide analogs were synthesized as described above. The EC50 for ClpP activation was determined in the Sa-ClpP in casein-BODIPY assay as described above. The IC50 for ADEP displacement was determined in the ADEP displacement fluorescent polarization assay as described above; and the IC50 for growth inhibition was determined in the Vero cell cytotoxicity assay as described above. The compound number corresponds to the compound numbers used in Tables 1-4 and the experimental examples described above.

Data set [4] can be described thus: Cytotoxicity assay (CellTiter-Glo cell viability, 72 hours). In kind it is cell-based. As to conditions: African green monkey; Vero cells, 72 hours, growth inhibition; read-out: Cytotoxicity IC50. The protocol: as §1
(In general: In ATP-based viability assays light output follows the ATP content of the culture.)

Where [5] appears, read: values without ** or † mark, assay variant not stated, read-out: ClpP Activation EC50.
The mark [6] stands for this setting: displacement of FP probe ADEP 2591 from Sa-ClpP, read-out: ADEP Displacement IC50.

What is called IC50 is the concentration at which inhibition is half-maximal. A word on the EC50: it is the midpoint of the concentration-response curve.

Take `C[C@H]1C[C@H]2C(=O)O[C@@H](C)[C@H](NC(=O)[C@H](Cc3cc(F)cc(F)c3)NC(=O)Nc3ccc(OC(F)(F)F)cc3)C(=O)N3CCC[C@H]3C(=O)N3CCCC[C@H]3C(=O)N[C@@H](C)C(=O)N2C1` [Compound 22, (S)-3-(3,5-difluorophenyl)-2-(3-(4-(trifluoromethoxy)phenyl)ureido)-N-((2R,6S,8aS,14aS,20S,21S,23aS)-2,6,21-trimethyl-5,8,14,19,23-pentaoxooctadecahydro-1H,5H,14H,19H-pyrido[2,1-i]dipyrrolo[2,1-c:2′,1′-l][1]oxa[4,7,10,13]tetraazacyclohexadecin-20-yl)propanamide] ({NH(4-OCF3-phenyl)-CO}-[Phe(3,5-F2)][aThr]P[Pip]A[Pro(4S-Me)]; ester 2-C): in data set [1], the half-maximal inhibitory concentration (IC50) worked out at 52.3 ± 7.7 µM.
In the case of `Cc1ccc(NC(=O)NC(Cc2cc(F)cc(F)c2)C(=O)NC2C(=O)N3CC(OP(=O)(O)O)CC3C(=O)N3CCCCC3C(=O)NC(C)C(=O)N3CC(C)CC3C(=O)OC2C)cc1C` [Compound 192, sodium (2R,6S,8aS,14aS,16R,20S,21S,23aS)-20-((S)-3-(3,5-difluorophenyl)-2-(3-(3,4-dimethylphenyl)ureido)propanamido)-2,6,21-trimethyl-5,8,14,19,23-pentaoxooctadecahydro-1H,5H,14H,19H-pyrido[2,1-i]dipyrrolo[2,1-c:2′,1′-l][1]oxa[4,7,10,13]tetraazacyclohexadecin-16-yl phosphate] ({NH(3,4-Me2-phenyl)-CO}-[Phe(3,5-F2)]T[X14][Pip]A[ξPro(4ξ-Me)]; ester 2-C; configuration not given here), the IC50 on Sa-ClpP [2] turned out to be 7.37 ± 0.28 µM. At Sa-ClpP [3], this compound returned an EC50 of 0.6 ± 0.02 µM.
Turning to `C[C@@H]1C[C@H]2C(=O)O[C@@H](C)[C@H](NC(=O)[C@H](Cc3cc(F)cc(F)c3)NC(=O)Nc3ccc4[nH]cnc4c3)C(=O)N3CCC[C@H]3C(=O)N3CCCC[C@H]3C(=O)N[C@@H](C)C(=O)N2C1` [Compound 303, (S)-2-(3-(1H-benzo[d]imidazol-6-yl)ureido)-3-(3,5-difluorophenyl)-N-((2R,6S,8aS,14aS,20S,21S,23aS)-2,6,21-trimethyl-5,8,14,19,23-pentaoxooctadecahydro-1H,5H,14H,19H-pyrido[2,1-i]dipyrrolo[2,1-c:2′,1′-l][1]oxa[4,7,10,13]tetraazacyclo-hexadecin-20-yl)propanamide] ({X13-CO}-[Phe(3,5-F2)][aThr]P[Pip]A[Pro(4R-Me)]; ester 2-C), in data set [4], the IC50 at 72 h is over 100 µM. This compound also had a half-inhibitory concentration (IC50) at Sa-ClpP [2] of 11.1 ± 0.4 µM. In addition, the EC50 on Sa-ClpP [3] (setting [5]) is 1.43 ± 0.03 µM.
For the compound “sodium (2R,6S,8aS,14aS,16R,20S,21S,23aS)-20-((S)-3-(3,5-difluorophenyl)-2-(3-(p-tolyl)ureido)propanamido)-2,6,21-trimethyl-5,8,14,19,23-pentaoxooctadecahydro-1H,5H,14H,19H-pyrido[2,1-i]dipyrrolo[2,1-c:2′,1′-l][1]oxa[4,7,10,13]tetraazacyclohexadecin-16-yl phosphate [Compound 191]”, the IC50 on Sa-ClpP [2] (setting [6]) is 8.56 ± 0.38 µM. For the same compound, the EC50 on Sa-ClpP [3] (setting [5]) came to 0.7 ± 0.03 µM.
For “sodium (R)-1-((2R,6S,9S,11aS,17S,18S,20aS)-17-((S)-3-(3,5-difluorophenyl)-2-(3-(p-tolyl)ureido)propanamido)-2,6,10,18-tetramethyl-5,8,11,16,20-pentaoxohexadecahydro-1H,5H,16H-dipyrrolo[2,1-c:2′,1′-l][1]oxa[4,7,10,13]tetraazacyclohexadecin-9-yl)ethyl phosphate [Compound 193]”, in that order: 7.15 ± 0.33 µM and 0.77 ± 0.05 µM.
